Test results published in PubChem BioAssay AID1963441 (Molecular Pharmacology Branch, DTP, NCI, 2024).
“And” between values parts separate entries of the source, which are not always exact repeats. Equal values may be shown once.

System: NCI-H1876 complex spheroid growth, % test/control
Experiment: Anticancer human tumor NCI-H1876 cell line growth inhibition [Asc];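 note: compound exposure lasted 7 days starting three days after seeding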;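 for viability, T/C: 100% = DMSO vehicle control wells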
Conditions: for viability, T/C: stronger effect = lower value
Experimental: Multicellular complex tumor spheroid response to apoptosis pathway targeting inhibitors Alrizomadlin, Pelcitoclax, and Dasminapant in combination with a variety of drugs and investigational agents in selected tumor cell lines
The MDM2 inhibitor alrizomadlin, the Bcl-2/Bcl-xL inhibitor pelcitoclax, and the IAPs inhibitor dasminapant were evaluated both individually and in combination with standard of care and investigational anticancer small molecules within a complex spheroid model of solid tumors. . Complex spheroids include a stromal component modeled by human endothelial cells (HUVEC) and fibroblasts modeled by human mesenchymal stem cells (MSCs). The concentration ranges selected for each drug and investigational agent were based upon clinically achievable concentrations if the clinical Cmax of the agent was known.
Compounds. The drugs and investigational agents: alrizomadlin (APG-115; NSC831270), pelcitoclax (APG-1252; NSC835773), dasminapant (APG-1387;NSC834197), TAK-243 (NSC785004), copanlisib (NSC809693), olaparib (NSC753686), talazoparib (NSC767125), cobimetinib (NSC 768068), eltanexor (KPT-8602, NSC 794443), abemaciclib (NSC 768073), sotorasib (NSC818433), adagrasib (NSC 831453), MRTX-1133 (NSC 836407), Iadademestat (ORY1001, NSC 806812), and RMC-4630 (NSC839698), were obtained from the NCI Developmental Therapeutics Program Chemical Repository. The FDA-approved anticancer drug set is available from the Developmental Therapeutics Program at https://dtp.cancer.gov/organization/dscb/obtaining/available plates.htm. […] The stock solutions were prepared in dimethyl sulfoxide (DMSO, Sigma-Aldrich, St. Louis, MO, cat. D2650) at 800-fold the tested concentration and stored at -70 degrees C prior to their use. All drugs and investigational agents were tested over a range starting from a high concentration at or near the clinical Cmax and decreasing in half-log increments. If the clinical Cmax for an agent had not been determined, the highest concentration tested was 10 microM.
The patient-derived cancer (PDC) cell lines include five colon adenocarcinomas: 186277-243-T-J2-PDC, 616215-338-R-J1-PDC, 439559-082-T-J2-PDC, 463943-066-T-J2-PDC, and 519858-162-T-J1-PDC; three pancreatic carcinomas: 323965-272-R-J2-PDC, 521955-158-R6-J3-PDC, and 521955-158-R2-J5-PDC; two uterine sarcomas: 327498-152-R-J2-PDC and 993429-296-R-J1-PDC; two rhabdomyosarcomas: 755483-174-R-J1-PDC and 772245-204-R-J1-PDC; two soft tissue sarcomas: 126254-015-R-J1-PDC and 494315-158-R-J1-PDC; two malignant fibrous histiocytomas: 317291-083-R-J1-PDC and 596521-263-R-J1-PDC; two breast carcinomas: 171881-019-R-J1-PDC and 885512-296-R-J2-PDC; and one ovarian carcinoma: 6556581-035-R-J-PDC were obtained from the NCI PDMR, (https://pdmr.cancer.gov). The established cell lines HSSY-2 synovial sarcoma (RRID:CVCL 8719), SYO-1 synovial sarcoma (RRID:CVCL_7146), MPNST malignant peripheral neural sheath tumor were obtained from the Sloan Kettering Institute. The following established cell lines were purchased from the American Type Culture Collection (ATCC, Manassas, VA), Sor the received from the NCI repository:, PANC-1 pancreatic carcinoma (CRL-1469, RRID:CVCL_0480), OVCAR-5 ovarian carcinoma (RRID:CVCL_1628), OVCAR-8 ovarian carcinoma (RRID:CVCL_1629), , MCF-7 breast carcinoma (CRL-12584, RRID:CVCL_0031), MDA-MB-231 breast carcinoma (CRL-12532, RRID:CVCL_0062), NCI-H1876 small cell lung carcinoma (CRL-5902, RRID:CVCL_1503), NCI-H510A small cell lung carcinoma (HTB-184, RRID:CVCL_1565), NCI-H1417 (CRL-5869, RRID:CVCL_1469), and NCI-H196 small cell lung carcinoma (CRL-5823, RRID:CVCL_1509). Dr. Peter Houghton (Greehey Children's Cancer Research Institute, University of Texas Health Science Center, San Antonio, TX) provided Rh-18 rhabdomyosarcoma (RRID:CVCL_1659). Pooled donor human umbilical vein endothelial cells (HUVEC, Lonza, cat. CC-2519) and human mesenchymal stem cells (hMSC, Lonza, cat. PT-2501) were purchased from Lonza (Walkersville, MD).
Cell Culture. […]

[1] = curve of first compound, second compound 0.0316 µM
[2] = curve of first compound, second compound 0.1 µM
[3] = curve of first compound, second compound 0.316 µM
[4] = curve of first compound, second compound 1 µM
[5] = second compound 0.0316 µM, first compound 0.0316 µM
[6] = second compound 0.0316 µM, first compound 0.1 µM
[7] = second compound 0.0316 µM, first compound 0.316 µM
[8] = second compound 0.0316 µM, first compound 1 µM
[9] = second compound 0.1 µM, first compound 0.0316 µM
[10] = second compound 0.1 µM, first compound 0.1 µM
[11] = second compound 0.1 µM, first compound 0.316 µM
[12] = second compound 0.1 µM, first compound 1 µM
[13] = second compound 0.316 µM, first compound 0.0316 µM
[14] = second compound 0.316 µM, first compound 0.1 µM
[15] = second compound 0.316 µM, first compound 0.316 µM
[16] = second compound 0.316 µM, first compound 1 µM
[17] = second compound 1 µM, first compound 0.0316 µM
[18] = second compound 1 µM, first compound 0.1 µM
[19] = second compound 1 µM, first compound 0.316 µM
[20] = second compound 1 µM, first compound 1 µM

For C#Cc1c(F)ccc2cc(O)cc(-c3ncc4c(N5CC6CCC(C5)N6)nc(OCC56CCCN5CC(F)C6)nc4c3F)c12 (stereo unspecified) + CNC(C)C(=O)NC1CN(S(=O)(=O)c2cccc(S(=O)(=O)N3CCC4CCC(C(=O)NC(c5ccccc5)c5ccccc5)N4C(=O)C(NC(=O)C(C)NC)C3)c2)CCC2CCC(C(=O)NC(c3ccccc3)c3ccccc3)N2C1=O, the IC50 (curve of first compound, second compound 0.00316 µM) was greater than 10 µM, the IC50 (curve of first compound, second compound 0.01 µM) was greater than 10 µM and the IC50 [1] was greater than 10 µM. The IC50 [2] was greater than 10 µM, the IC50 [3] was greater than 10 µM and the IC50 [4] was greater than 10 µM. For the same compound, the viability, T/C (second compound 0.00316 µM, first compound 0.0316 µM) was 101%, the viability, T/C (second compound 0.00316 µM, first compound 0.1 µM) was 88.2% and the viability, T/C (second compound 0.00316 µM, first compound 0.316 µM) was 103%. It also gave a viability, T/C (second compound 0.00316 µM, first compound 1 µM) of 90.3%, a viability, T/C (second compound 0.00316 µM, first compound 3.16 µM) of 93.5% and a viability, T/C (second compound 0.00316 µM, first compound 10 µM) of 86.7%. For the same compound, the viability, T/C (second compound 0.01 µM, first compound 0.0316 µM) was 96.9%, the viability, T/C (second compound 0.01 µM, first compound 0.1 µM) was 92.3% and the viability, T/C (second compound 0.01 µM, first compound 0.316 µM) was 101%. For the same compound, the viability, T/C (second compound 0.01 µM, first compound 1 µM) was 92.9%, the viability, T/C (second compound 0.01 µM, first compound 3.16 µM) was 91.8% and the viability, T/C (second compound 0.01 µM, first compound 10 µM) was 89.3%. The viability, T/C [5] was 105%, the viability, T/C [6] was 88.6% and the viability, T/C [7] was 101%. The viability, T/C [8] was 93.9%, the viability, T/C (second compound 0.0316 µM, first compound 3.16 µM) was 102% and the viability, T/C (second compound 0.0316 µM, first compound 10 µM) was 95.7%. For the same compound, the viability, T/C [9] was 106%, the viability, T/C [10] was 99.4% and the viability, T/C [11] was 104%. The viability, T/C [12] was 94.6%, the viability, T/C (second compound 0.1 µM, first compound 3.16 µM) was 94.5% and the viability, T/C (second compound 0.1 µM, first compound 10 µM) was 82.8%. For the same compound, the viability, T/C [13] was 109%, the viability, T/C [14] was 101% and the viability, T/C [15] was 89.8%. The viability, T/C [16] was 108%, the viability, T/C (second compound 0.316 µM, first compound 3.16 µM) was 107% and the viability, T/C (second compound 0.316 µM, first compound 10 µM) was 96%. It also gave a viability, T/C [17] of 90.3%, a viability, T/C [18] of 89.8% and a viability, T/C [19] of 98%. The viability, T/C [20] was 106%, the viability, T/C (second compound 1 µM, first compound 3.16 µM) was 103% and the viability, T/C (second compound 1 µM, first compound 10 µM) was 92.2%.

For COc1c(OCCCN2CCOCC2)ccc2c3n(c(=NC(=O)c4cnc(N)nc4)nc12)CCN3 + Cc1c(S(C)(=O)=O)c(-c2cc(F)cc(N3CCN(c4ccc(NS(=O)(=O)c5ccc(NC(CCN6CCC(C(=O)OCCCP(=O)(O)O)CC6)CSc6ccccc6)c(S(=O)(=O)C(F)(F)F)c5)cc4)CC3)c2)c(-c2ccc(Cl)cc2)n1C(C)C, the IC50 [1] was 0.243 µM, the IC50 [2] was 0.225 µM and the IC50 [3] was 0.207 µM. It also gave an IC50 [4] of 0.149 µM, an IC50 (curve of first compound, second compound 3.16 µM) of 0.118 µM and an IC50 (curve of first compound, second compound 10 µM) of 0.102 µM. It also gave a viability, T/C (second compound 0.0316 µM, first compound 0.00316 µM) of 94.3%, a viability, T/C (second compound 0.0316 µM, first compound 0.01 µM) of 88% and a viability, T/C [5] of 91.3%. The viability, T/C [6] was 62.4%, the viability, T/C [7] was 49.3% and the viability, T/C [8] was 35.9%. The viability, T/C (second compound 0.1 µM, first compound 0.00316 µM) was 93.2%, the viability, T/C (second compound 0.1 µM, first compound 0.01 µM) was 88% and the viability, T/C [9] was 88.2%. The viability, T/C [10] was 63.2%, the viability, T/C [11] was 45.4% and the viability, T/C [12] was 29.6%. For the same compound, the viability, T/C (second compound 0.316 µM, first compound 0.00316 µM) was 94.3%, the viability, T/C (second compound 0.316 µM, first compound 0.01 µM) was 94.4% and the viability, T/C [13] was 87.6%. The viability, T/C [14] was 62.2%, the viability, T/C [15] was 43.2% and the viability, T/C [16] was 20.1%. For the same compound, the viability, T/C (second compound 1 µM, first compound 0.00316 µM) was 98.5%, the viability, T/C (second compound 1 µM, first compound 0.01 µM) was 94.7% and the viability, T/C [17] was 82.5%. For the same compound, the viability, T/C [18] was 57.3%, the viability, T/C [19] was 35% and the viability, T/C [20] was 18.7%. It also gave a viability, T/C (second compound 3.16 µM, first compound 0.00316 µM) of 101%, a viability, T/C (second compound 3.16 µM, first compound 0.01 µM) of 84.7% and a viability, T/C (second compound 3.16 µM, first compound 0.0316 µM) of 77.9%. The viability, T/C (second compound 3.16 µM, first compound 0.1 µM) was 52.8%, the viability, T/C (second compound 3.16 µM, first compound 0.316 µM) was 29.2% and the viability, T/C (second compound 3.16 µM, first compound 1 µM) was 10.7%. For the same compound, the viability, T/C (second compound 10 µM, first compound 0.00316 µM) was 96.7%, the viability, T/C (second compound 10 µM, first compound 0.01 µM) was 90.3% and the viability, T/C (second compound 10 µM, first compound 0.0316 µM) was 74.5%. It also gave a viability, T/C (second compound 10 µM, first compound 0.1 µM) of 48.4%, a viability, T/C (second compound 10 µM, first compound 0.316 µM) of 28.3% and a viability, T/C (second compound 10 µM, first compound 1 µM) of 8.91%.

With CCN1CCN(Cc2ccc(Nc3ncc(F)c(-c4cc(F)c5nc(C)n(C(C)C)c5c4)n3)nc2)CC1 the viability, T/C (compound 0.00316 µM) was 101% and 103% and 104%, the viability, T/C (compound 0.01 µM) was 94.1% and 101% and 89.8% and the viability, T/C (compound 0.0316 µM) was 97.1% and 101% and 106%. For the same compound, the viability, T/C (compound 0.1 µM) was 105% and 100% and 106%, the viability, T/C (compound 0.316 µM) was 114% (2×) and 120% and the viability, T/C (compound 1 µM) was 126% and 132% and 131%. The IC50 (curve of compound) was greater than 1 µM.
